Data on one compound can be found in ChEMBL document CHEMBL5584341, “Discovery of Potent, Specific, and Orally Available NLRP3 Inflammasome Inhibitors Based on Pyridazine Scaffolds for the Treatment of Septic Shock and Peritonitis” (J Med Chem, 2024).

Data set [1] concerns the target NACHT, LRR and PYD domains-containing protein 3 (Mus musculus) (UniProt Q8R4B8). Put plainly: Inhibition of NLRP3 inflammasome activation in LPS/nigericin stimulated mouse BMDMs assessed as reduction in caspase-1 release pretreated with LPS for 3 hrs followed by compound addition for 40 mins prior to nigericin stimulation for 40 mins by Western blotting analysis. The format is cell-based. The settings on record: BMDM, time 80.0 min. A general note: Immunoblotting shows a protein as a band on a membrane.

The test system of data set [2] is NRK-49F. Put plainly: Cytotoxicity against rat NRK-49F cells at 5 to 20 uM incubated for 72 hrs by MTT assay. In kind it is toxicity, cell-based. Conditions: dose 5-20 µM.
Data set [3] relates to Mus musculus. As to the kind of experiment: Inhibition of MSU crystal induced peritonitis in BALB/c mouse assessed as reduction in neutrophil recruitment at 50 to 100 mg/kg, ip pretreated with LPS for 3 hrs followed by compound addition prior to MSU stimulation for 6 hrs by ELISA. The format is functional, organism-based. Conditions: dose 50-100 mg/kg. A general note: In an ELISA, binding on a coated surface is turned into a signal by an enzyme label.

Data set [4] has as its target NACHT, LRR and PYD domains-containing protein 3 (Mus musculus) (UniProt Q8R4B8). As to the kind of experiment: Inhibition of NLRP3 inflammasome activation in mouse BMDMs assessed as effect on NLRP3 expression at 2 to 31.25 nM pretreated with LPS for 3 hrs followed by compound addition for 40 mins. In kind it is cell-based. The settings on record: BMDM, dose 2-31.25 nM.

Data set [5] addresses T1, Interferon-inducible protein AIM2 (Mus musculus) (UniProt Q91VJ1).
T1 sequence (whole entry): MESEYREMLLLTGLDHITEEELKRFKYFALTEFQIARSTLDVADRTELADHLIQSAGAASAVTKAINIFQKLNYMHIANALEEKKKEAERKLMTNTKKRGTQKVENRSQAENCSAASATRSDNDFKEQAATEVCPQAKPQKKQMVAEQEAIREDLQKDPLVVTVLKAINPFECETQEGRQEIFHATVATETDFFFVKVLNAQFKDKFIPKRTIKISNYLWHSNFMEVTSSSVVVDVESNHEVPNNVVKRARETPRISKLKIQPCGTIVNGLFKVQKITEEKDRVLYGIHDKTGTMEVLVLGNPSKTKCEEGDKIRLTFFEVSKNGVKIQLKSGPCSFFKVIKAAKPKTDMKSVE
Put plainly: Inhibition of poly dA:dT stimulated AIM2 inflammasome activation in mouse BMDMs assessed as reduction in IL-1beta secretion at 0.1 to 10 uM pretreated with LPS for 3 hrs followed by compound addition for 40 mins prior to poly dA:dT stimulation for 6 hrs by ELISA. The settings on record: BMDM, dose 0.1-10 µM, time 400.0 min. The format is cell-based.

A short description of data set [6]: Half-life in BALB/c mouse at 5 mg/kg, po measured upto 24 hrs by LC-MS/MS analysis. In kind it is ADME, organism-based. Conditions: in vivo.
In data set [7] the target is NACHT, LRR and PYD domains-containing protein 3 (Mus musculus) (UniProt Q8R4B8). Put plainly: Inhibition of NLRP3 inflammasome activation in LPS stimulated mouse BMDMs assessed as reduction in IL-1beta release at 2 to 31.25 nM pretreated with LPS for 3 hrs followed by compound addition for 40 mins prior to alum stimulation for 6 hrs by ELISA. In kind it is cell-based. The settings on record: BMDM, dose 2-31.25 nM, time 400.0 min.

Data set [8] can be described thus: Half-life in BALB/c mouse at 5 mg/kg, iv measured upto 24 hrs by LC-MS/MS analysis. In kind it is ADME, organism-based. The settings on record: in vivo.
The target in data set [9] is NACHT, LRR and PYD domains-containing protein 3 (Mus musculus) (UniProt Q8R4B8). Put plainly: Inhibition of NLRP3 inflammasome activation in LPS/nigericin stimulated mouse BMDMs assessed as effect on NLRP3 expression pretreated with LPS for 3 hrs followed by compound addition for 40 mins prior to nigericin stimulation for 40 mins by Western blotting analysis. The settings on record: BMDM, time 80.0 min. In kind it is cell-based.

Data set [10] is described as follows: Inhibition of IL-1beta release in PMA-differentiated/ LPS and nigericin stimulated human THP-1 cells pretreated with LPS for 3 hrs followed by incubation with compound for 40 mins and later stimulated with nigericin for 40 mins by ELISA. The format is functional, cell-based.
For data set [11], the target named is NACHT, LRR and PYD domains-containing protein 3 (Mus musculus) (UniProt Q8R4B8). Put plainly: Inhibition of NLRP3 inflammasome activation in LPS/nigericin stimulated mouse BMDMs assessed as effect on pro-IL-1beta expression pretreated with LPS for 3 hrs followed by compound addition for 40 mins prior to nigericin stimulation for 40 mins by Western blotting analysis. In kind it is cell-based. Conditions: BMDM, time 80.0 min.

The target is the same in data set [12]. As to the kind of experiment: Inhibition of NLRP3 inflammasome activation in LPS/nigericin stimulated mouse BMDMs assessed as effect on pro-caspase-1 expression pretreated with LPS for 3 hrs followed by compound addition for 40 mins prior to nigericin stimulation for 40 mins by Western blotting analysis. The settings on record: BMDM, time 80.0 min. In kind it is cell-based.

A short description of data set [13]: AUC(0 to t) in BALB/c mouse at 5 mg/kg, po measured upto 24 hrs by LC-MS/MS analysis. The format is ADME, organism-based. Conditions: in vivo.
Data set [14] in a line: Metabolic stability in human liver microsomes assessed as intrinsic clearance per g protein at 10 uM […] in presence of NADPH by LC-MS/MS analysis. In kind it is ADME, Microsome. (In general: Liver microsomes are a subcellular fraction often used to study metabolism.)
For data set [15], the system named is Mus musculus. Put plainly: Antiinflammatory activity against LPS induced septic shock in BALB/c mouse assessed as increase in survival rate at 25 mg/kg, ip pretreated for 1 hr followed by LPS stimulation and measured after 72 hrs. In kind it is functional. Conditions: time 73 hrs.
For data set [16], the target named is T2, Cytochrome P450 1A2 (Homo sapiens, UniProt P05177).
T2 sequence (P05177 whole entry): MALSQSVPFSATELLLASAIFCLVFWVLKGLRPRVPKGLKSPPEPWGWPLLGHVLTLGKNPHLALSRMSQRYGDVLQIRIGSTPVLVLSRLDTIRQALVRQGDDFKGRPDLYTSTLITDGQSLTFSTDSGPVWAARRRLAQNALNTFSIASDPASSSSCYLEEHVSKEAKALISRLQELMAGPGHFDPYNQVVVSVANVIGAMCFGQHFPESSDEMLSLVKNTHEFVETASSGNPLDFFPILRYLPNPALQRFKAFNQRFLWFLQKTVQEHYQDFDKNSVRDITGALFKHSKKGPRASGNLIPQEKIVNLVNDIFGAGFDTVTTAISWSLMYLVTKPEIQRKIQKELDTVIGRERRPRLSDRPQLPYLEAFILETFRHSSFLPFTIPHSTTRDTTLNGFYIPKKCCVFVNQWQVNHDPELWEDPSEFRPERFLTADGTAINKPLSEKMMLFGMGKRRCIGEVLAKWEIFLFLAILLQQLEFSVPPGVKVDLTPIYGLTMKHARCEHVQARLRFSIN
Put plainly: Inhibition of human CYP1A2 upto 10 uM relative to control. In kind it is ADME.

The nature of data set [17]: Tmax in BALB/c mouse at 5 mg/kg, po measured upto 24 hrs by LC-MS/MS analysis. In kind it is ADME, organism-based. The settings on record: in vivo.
For data set [18], the system named is Mus musculus. Put plainly: Antiinflammatory activity against LPS induced septic shock in BALB/c mouse assessed as reduction in serum IL-1beta level at 25 mg/kg, ip pretreated for 1 hr followed by LPS stimulation and measured after 3 hrs by ELISA. In kind it is functional, organism-based. Conditions: time 4.0 hrs.
Data set [19] addresses Cytochrome P450 3A4 (Homo sapiens, UniProt P08684). As to the kind of experiment: Inhibition of human CYP3A4 upto 10 uM relative to control. The format is ADME.
Data set [20] has as its target NACHT, LRR and PYD domains-containing protein 3 (Mus musculus) (UniProt Q8R4B8). As to the kind of experiment: Inhibition of NLRP3 inflammasome activation in mouse BMDMs assessed as effect on NLRP3 expression at 2 to 31.25 nM pretreated with compound for 40 mins followed by LPS/nigericin stimulation. The format is cell-based. Conditions: BMDM, dose 2-31.25 nM.
Data set [21] can be described thus: AUC(0 to t) in BALB/c mouse at 5 mg/kg, iv measured upto 24 hrs by LC-MS/MS analysis. The format is ADME, organism-based. Conditions: in vivo.
In data set [22] the target is NACHT, LRR and PYD domains-containing protein 3 (Mus musculus) (UniProt Q8R4B8). As to the kind of experiment: Inhibition of NLRP3 inflammasome activation in LPS/nigericin stimulated mouse BMDMs assessed as effect on ASC expression pretreated with LPS for 3 hrs followed by compound addition for 40 mins prior to nigericin stimulation for 40 mins by Western blotting analysis. The settings on record: BMDM, time 80.0 min. In kind it is cell-based.

The structures appear in SMILES notation. Activity calls are given as the source filed them.

Chain of NACHT, LRR and PYD domains-containing protein 3 (Mus musculus) (Q8R4B8 whole entry, the tested form may be a part): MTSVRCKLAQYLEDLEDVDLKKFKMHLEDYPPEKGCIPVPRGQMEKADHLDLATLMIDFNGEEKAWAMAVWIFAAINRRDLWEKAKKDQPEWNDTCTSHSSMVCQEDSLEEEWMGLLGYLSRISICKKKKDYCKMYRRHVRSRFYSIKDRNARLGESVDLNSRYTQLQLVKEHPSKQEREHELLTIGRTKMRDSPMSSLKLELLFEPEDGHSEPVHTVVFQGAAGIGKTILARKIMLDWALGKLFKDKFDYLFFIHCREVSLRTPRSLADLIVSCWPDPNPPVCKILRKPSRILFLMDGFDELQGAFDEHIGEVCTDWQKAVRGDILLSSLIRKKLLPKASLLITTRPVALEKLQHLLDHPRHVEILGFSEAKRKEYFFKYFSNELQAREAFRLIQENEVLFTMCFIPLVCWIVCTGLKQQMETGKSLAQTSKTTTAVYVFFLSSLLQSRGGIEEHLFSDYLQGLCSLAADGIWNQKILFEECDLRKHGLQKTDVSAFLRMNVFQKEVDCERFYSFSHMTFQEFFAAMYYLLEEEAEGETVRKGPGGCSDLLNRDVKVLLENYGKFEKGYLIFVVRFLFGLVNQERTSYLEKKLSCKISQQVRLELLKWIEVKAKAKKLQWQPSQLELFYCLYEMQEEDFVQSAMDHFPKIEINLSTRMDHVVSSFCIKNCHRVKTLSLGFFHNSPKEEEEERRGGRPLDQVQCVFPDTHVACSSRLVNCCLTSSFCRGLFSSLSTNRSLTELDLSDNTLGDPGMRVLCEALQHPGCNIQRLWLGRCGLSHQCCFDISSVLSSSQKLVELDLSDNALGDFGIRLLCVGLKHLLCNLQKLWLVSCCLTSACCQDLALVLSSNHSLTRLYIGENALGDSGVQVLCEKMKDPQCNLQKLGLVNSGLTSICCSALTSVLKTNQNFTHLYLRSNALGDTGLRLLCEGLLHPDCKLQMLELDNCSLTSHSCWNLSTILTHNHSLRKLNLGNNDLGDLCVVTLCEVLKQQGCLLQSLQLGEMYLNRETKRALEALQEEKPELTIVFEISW
Chain of Cytochrome P450 3A4 (P08684 whole entry, the tested form may be a part): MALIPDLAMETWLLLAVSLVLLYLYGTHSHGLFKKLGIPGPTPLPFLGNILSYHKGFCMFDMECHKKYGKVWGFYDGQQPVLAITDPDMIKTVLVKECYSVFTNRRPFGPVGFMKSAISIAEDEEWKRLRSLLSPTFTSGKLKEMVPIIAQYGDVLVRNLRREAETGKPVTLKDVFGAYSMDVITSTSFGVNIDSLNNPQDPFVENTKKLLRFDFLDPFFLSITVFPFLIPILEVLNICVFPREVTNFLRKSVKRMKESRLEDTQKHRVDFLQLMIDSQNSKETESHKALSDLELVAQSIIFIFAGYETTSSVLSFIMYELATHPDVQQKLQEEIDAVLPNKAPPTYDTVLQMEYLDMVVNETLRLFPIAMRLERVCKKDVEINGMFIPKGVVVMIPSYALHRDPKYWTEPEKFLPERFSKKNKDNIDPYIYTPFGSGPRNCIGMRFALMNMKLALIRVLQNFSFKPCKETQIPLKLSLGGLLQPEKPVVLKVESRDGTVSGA

`OCCN1CCC[C@@H](Nc2nnc(-c3ccc4occc4c3O)c3c2C2CCC3CC2)C1`: in data set [1], the inhibition entry is “Dose-Dependent Effect”. Moreover, the Activity entry in [2] is “Non-Toxic”; in data set [15] it was 82%. Further, the inhibition result in data set [3] and in data set [7] was “Active” throughout. For the same compound, the inhibition entry in data set [4], in [5], in data set [9], in data set [11], in data set [12] and in data set [20] was “inactive” throughout. In data set [22], the inhibition result is “inactive”. In addition, the half-life was 4.74 h in data set [6] and 3.51 h in data set [8]. In addition, the 50% inhibitory concentration (IC50) in [10] stood at 3 nM. Also, the exposure AUC(0-t) at 24 h was 5940 ng·h/mL in data set [13] and 9520 ng·h/mL in [21]. The intrinsic clearance in data set [14] is under 12 mL/min. The “inhibition (INH)” value in [16] and in data set [19] was “Not Active” in each case. For the same compound, in [17], the time to peak (Tmax) amounted to 1.83 h. The outcome in [18] was Active.

One may read the half-life as the time needed for the level to fall by half in the phase considered. As usually defined, the IC50 is the point on the concentration scale where inhibition reaches its midpoint. One may read the AUC(0-t) as the area under the concentration-time curve up to a stated or last time point. Read a high AUC(0-t) as more exposure. By Tmax is commonly meant the time at which the peak concentration occurs.
